Data taken from patent US20160194631A1, “Methods for Modulation of Autophagy Through the Modulation of Autophagy-Inhibiting Gene Products” (Harvard Medical School, priority 2009, published 2016).
Entries after “also recorded” stand apart in the source; their conditions may differ.

What was measured:
Assay type in all cases: cell-based, human
[1] = test system: H4 cells stably expressing LC3-GFP; assay: LC3-GFP autophagosome translocation image-based assay; details: for autophagy as measured by LC3-GFP translocation: H4 LC3-GFP cells grown in serum-free medium, cytokine 24 hours; for autophagy (autophagosome associated LC3-GFP): H4 LC3-GFP cells in defined medium
Experimental: (§1) H4 human neuroblastoma cells were cultured under standard tissue culture conditions in DMEM media supplemented with 10% normal calf serum, penicillin/streptomycin, sodium pyruvate (Invitrogen) and, where appropriate, 0.4-1.2 mg/mL G418. LC3-GFP and FYVE-dsRed H4 cells were generated as described in Zhang et al., PNAS, 102, 15545-15550 (2007). To create a stable line expressing Lamp1, H4 cells were transfected with Lamp1-RFP plasmid using TransIT LT1 reagent (Minis), followed by selection with 0.4 mg/mL G418. Bcl-2 expressing cell lines were created by infecting LC3-GFP and FYVE-dsRed H4 cells with pBabe-Bcl-2 retrovirus, followed by selection with […] puromycin.
For the cytokine assays, cells were seeded at 0.5×10^5 in full medium in either 24-well (western) or 96-well (LC3-GFP quantification) plates. After 24 hours, cells were washed in PBS and serum-free OptiMEM medium (Invitrogen) was added along with the indicated growth factors and/or cytokines for an additional 24 hours. Growth factors and cytokines used include human TNFα (Cell Sciences), human LIF (GeneScript Corporation), human FGF2 (ProSpec), human IGF1 (ProSpec), human SDF1 (Prospec) and human CLCF1 (R&D Systems). To induce starvation, cells were cultured for 24 hours in full media, washed in PBS and cultured for additional 4 hours in HBSS bedia (Invitrogen). […]
For high-throughput screens, cells were imaged on an automated CellWoRx microscope (Applied Precision) at 10× magnification using 2 wavelengths (350 nm to detect Hoechst, 488 nm to detect LC3-GFP) for the primary screens and 3 wavelengths (350 nm, 488 nm and 550 nm to detect Lamp1-RFP or FYVE-dsRed) for the secondary screens. All images were quantified using VHSscan and VHSview image analysis software (Cellomics). Total cell number, total LC3-GFP intensity/cell as well as number, area and intensity of LC3-GFP positive autophagosomes/cell were scored. All dead and mitotic cells were excluded from analysis based on nuclear intensity. The final autophagy score for each well was obtained by multiplying the total autophagosome intensity/cell by the number of autophagosomes/cell and dividing by the average cell intensity. This formula was empirically determined to accurately measure LC3-GFP translocation from cytosol into autophagosomes as reflected by consistently significant z-scores and p-values when using siRNAs against mTOR and Atg5 controls. FYVE-dsRed and Lamp1-RFP scores were obtained in a manner similar to LC3-GFP scores, except that for Lamp1-RFP, which measures total accumulation of the reporter rather than its translocation, division by the average cell intensity was omitted.
For low-throughput follow-up analysis, cells were grown on glass cover slips. Following fixation in 4% paraformaldehyde and counterstaining with Hoechst, cover slips were mounted in 50% glycerol, 0.1% n-propyl gallate/PBS. Cells were imaged at 40× magnification on a Nikon Eclipse E800 microscope. Cell numbers, cell area and intensity, as well as autophagosome number and intensity, were quantified using Metamorph software. Autophagy was scored as number of autophagosomes per cell.
Human neuroblastoma H4 cells stably expressing the LC3-GFP reporter were used to identify genes involved in the regulation of autophagy in mammals. […] When autophagy is induced in these cells, LC3-GFP is recruited from the cytosol and can be visualized in a punctate pattern corresponding to autophagosomes. In order to validate the system, cells were transfected with siRNA against either the essential autophagy mediator ATG5 or against mTOR, a suppressor of starvation-induced autophagy. Following 72 hours of incubation under normal nutritional conditions, […].

[2] = test system: H4 cells; assay: Western blot of signalling protein levels and phosphorylation; details: for activating phosphorylation of Stat3: 50 ng/mL LIF or CLCF1
Source text: (§2) For western blots, cells were lysed in Lammeli sample buffer, resolved on a 10-12% SDS-PAGE gel and transferred to PVDF membrane. The following antibodies were used: LC3 (Novus), p62 (Pharmigen), phospho-S6K (Thr389), phospho-Akt (Ser473), phospho-Stat3 (Tyr705), RelA, Sod1, phospho-PTEN (Ser380/Thr382/383) (all Cell Signaling), Bcl-2 (Santa Cruz), all at 1:1000, phospho-S6 (Ser235/236) (Cell Signaling) and phospho-ERK 1/2 (Sigma) at 1:2000, tubulin (Sigma) at 1:5000. Where indicated, blots were quantified using NIH ImageJ64 software.

[3] = test system: H4 cells; assay: Western blot of autophagy markers (LC3, p62); details: for autophagy by western blot (LC3II accumulation, LC3 II/tubulin): serum-free medium, 100 ng/mL IGF1, 50 ng/mL FGF2, LIF or CLCF1, 10 μg/mL E64d, with or without 50 nM rapamycin, H4, HEK293, HeLa, MCF7
Experimental: For the cytokine assays, cells were seeded at 0.5×10^5 in full medium in either 24-well (western) or 96-well (LC3-GFP quantification) plates. After 24 hours, cells were washed in PBS and serum-free OptiMEM medium (Invitrogen) was added along with the indicated growth factors and/or cytokines for an additional 24 hours. Growth factors and cytokines used include human TNFα (Cell Sciences), human LIF (GeneScript Corporation), human FGF2 (ProSpec), human IGF1 (ProSpec), human SDF1 (Prospec) and human CLCF1 (R&D Systems). To induce starvation, cells were cultured for 24 hours in full media, washed in PBS and cultured for additional 4 hours in HBSS bedia (Invitrogen).
For western blot analysis, lysosomal protease inhibitor E64d (Sigma) was added at a concentration of 10 μg/mL for the last 8-12 hours before cell lysis.
as §2

[4] = test system: GRP78 and GRP94; assay: In-cell-western of KDEL (GRP78/GRP94) expression (ER stress); details: H4 cells treated with tunicamycin
Experimental: For quantitative analysis of mTORC1 signaling and induction of endoplasmic reticulum stress, in-cell-western analysis of rpS6 phosphorylation and KDEL (GRP78/GRP94) expression (‘KDEL’ disclosed as SEQ ID NO: 2), respectively, were performed. H4 cells were cultured in 384-well plates and fixed and counterstained as described for the LC3-GFP assay. Following imaging, the cells were permeabilized in PBS containing 0.2% Tx-100 and stained with Alexa-680 NETS-ester, a non-specific lysine reactive probe used to measure relative cell number, at 20 ng/mL for 15 minutes. Subsequently, the cells were washed with PBS containing 0.2% Tx-100 and incubated for 30 minutes in blocking buffer (LiCOR Blocking Buffer diluted 1:1 with PBS+0.2% Tx-100). Cells were then incubated overnight with a rabbit-anti-rpS6 phospho-235/236 (Cell Signaling Technologies), or mouse-anti-KDEL (Stressgen) antibody (‘KDEL’ disclosed as SEQ ID NO: 2) diluted 1:1000 in blocking buffer. […] The intensities of both, the rpS6 phospho-235/236 or KDEL staining (‘KDEL’ disclosed as SEQ ID NO: 2), and of NHS-ester staining were integrated, and the normalized phospho-S6 or KDEL score (‘KDEL’ disclosed as SEQ ID NO: 2) were calculated by dividing phospho-rpS6 or KDEL intensity by NHS-ester intensity (‘KDEL’ disclosed as SEQ ID NO: 2). […]

[5] = test system: type III PI3 kinase; assay: FYVE-dsRed reporter assay of PtdIns3P levels
Experimental: as §1
For secondary screens, a siRNA library was used in which the 4 siRNAs of each siRNA pool were separated into individual wells. […]
For high-throughput screens, cells were imaged on an automated CellWoRx microscope (Applied Precision) at 10× magnification using 2 wavelengths (350 nm to detect Hoechst, 488 nm to detect LC3-GFP) for the primary screens and 3 wavelengths (350 nm, 488 nm and 550 nm to detect Lamp1-RFP or FYVE-dsRed) for the secondary screens. All images were quantified using VHSscan and VHSview image analysis software (Cellomics). Total cell number, total LC3-GFP intensity/cell as well as number, area and intensity of LC3-GFP positive autophagosomes/cell were scored. […]

[6] = 100 ng/mL IGF1 plus Akt inhibitor VIII

Molecule: SDF1: human SDF1 (Prospec); chemokine SDF1 (CXCL12)
- autophagy as measured by LC3-GFP translocation [1]: significant down-regulation of autophagy

Molecule: O=c1[nH]c2ccccc2n1C1CCN(Cc2ccc(-c3nc4cc5[nH]cnc5cc4nc3-c3ccccc3)cc2)CC1 [Akt inhibitor VIII, reference compound]
- phosphorylation of Foxo3a and S6 kinase [2, 6]: attenuated phosphorylation
- effect on inhibition of autophagy by IGF1 [3, 6]: prevented inhibition of autophagy

Molecule: TNFα
- autophagy (autophagosome associated LC3-GFP) ([1]; higher doses of TNFα): up-regulation of autophagy
- autophagy (autophagosome associated LC3-GFP) ([1]; low doses of TNFα): down-regulation of autophagy
- p62 level by western blot ([3]; low levels of TNFα (5 ng/ml), nutrient deprivation): significant accumulation of p62

Molecule: tunicamycin [reference compound]
- autophagy ([1]; H4 cells treated with tunicamycin): increase in autophagy
- levels of GRP78 and GRP94 [4]: dose-dependent up-regulation

Molecule: N#CC(=C(/N)Sc1ccccc1N)/C(C#N)=C(/N)Sc1ccccc1N [UO126, reference compound]
- effect on inhibition of autophagy by FGF2 (LC3 western) ([3]; H4 cells, serum-free media, 50 ng/mL FGF2, 10 μg/mL E64d, UO126 pre-treatment): attenuated inhibition of autophagy; also recorded: prevented

Molecule: Cn1cnc(=N)c2[nH]cnc21 [3MA, reference compound]
- effect on induction of autophagy in response to Aβ ([1]; H4 GFP-LC3 cells, 3MA): attenuate induction of autophagy
- effect on Aβ-induced accumulation of PtdIns3P ([5]; 3MA 10 mM, 8 hours prior to fixation): suppressed

Molecule: IGF1: human IGF1 (ProSpec); insulin-like growth factor 1
- autophagy as measured by LC3-GFP translocation [1]: significant down-regulation of autophagy
- phosphorylation of Akt and Foxo3a ([2]; IGF-1 treatment, absence and presence of rapamycin): increased
- autophagy by western blot (LC3II accumulation, LC3 II/tubulin) [3]: suppress autophagy in the absence and presence of rapamycin

Molecule: CC(=O)N[C@@H](CS)C(=O)O [NAC, N-acetyl-L-cysteine, reference compound]
- effect on induction of autophagy caused by knock-down of Sod1 ([1]; H4 LC3-GFP cells, 2.5 mM NAC): significantly attenuated
- effect on elevated induction of autophagy in response to starvation ([1]; RelA deficient H4 cells, 2.5 mM NAC): attenuated
- effect on Aβ-induced accumulation of PtdIns3P ([5]; with antioxidant NAC): suppressed

Molecule: LIF: human LIF (GeneScript Corporation); leukemia inhibitory factor
- autophagy as measured by LC3-GFP translocation [1]: significant down-regulation of autophagy
- activating phosphorylation of Stat3 [2]: increased activating phosphorylation of Stat3
- autophagy by western blot (LC3II accumulation, LC3 II/tubulin) [3]: suppress autophagy in the absence and presence of rapamycin

Molecule: FGF2: human FGF2 (ProSpec); fibroblast growth factor 2 (basic)
- autophagy as measured by LC3-GFP translocation [1]: significant down-regulation of autophagy
- level of phospho-ERK1/2 and phospho-RSK ([2]; H4 cells, serum-free media, 50 ng/mL FGF2): increased level
- autophagy by western blot (LC3II accumulation, LC3 II/tubulin) [3]: suppress autophagy in the absence and presence of rapamycin

B1: CLCF1: human CLCF1 (R&D Systems); cardiotrophin-like cytokine factor 1 (protein, UniProt Q9UBD9 28-225, looked up)
Cardiotrophin-like cytokine …: LNRTGDPGPGPSIQKTYDLTRYLEHQLRSLAGTYLNYLGPPFNEPDFNPPRLGAETLPRATVDLEVWRSLNDKLRLTQNYEAYSHLLCYLRGLNRQAATAELRRSLAHFCTSLQGLLGSIAGVMAALGYPLPQPLPGTEPTWTPGPAHSDFLQKMDDFWLLKELQTWLWRSAKDFNRLKKKMQPPAAAVTLHLGAHGF
- autophagy as measured by LC3-GFP translocation [1]: significant down-regulation of autophagy
- activating phosphorylation of Stat3 [2]: increased activating phosphorylation of Stat3
- autophagy by western blot (LC3II accumulation, LC3 II/tubulin) [3]: suppress autophagy in the absence and presence of rapamycin
